In publication PMC10254914, “Targeting Transcriptional CDKs 7, 8, and 9 with Anilinopyrimidine Derivatives as Anticancer Agents: Design, Synthesis, Biological Evaluation and In Silico Studies” (Molecules, 2023):

Columns and labels:
[1] = tested on: HepG2 (hepatocellular carcinoma); experiment: MTT antiproliferative assay, HepG2; settings: Homo sapiens, HepG2, read-out: IC50 (µM) HepG2
Description: (§1) The cell lines mentioned above were used to determine the inhibitory effects of the compounds on cell growth using the MTT assay.

[2] = tested on: HeLa (cervical epithelioid carcinoma); experiment: MTT antiproliferative assay, HeLa; settings: Homo sapiens, read-out: IC50 (µM) HeLa
Description: as §1

[3] = tested on: HCT116 (colorectal carcinoma); experiment: MTT antiproliferative assay, HCT116; settings: Homo sapiens, HCT-116, read-out: IC50 (µM) HCT116
Description: as §1

[4] = tested on: normal fibroblast cell line, WI-38; experiment: MTT cytotoxicity in normal fibroblasts WI-38; settings: Homo sapiens, WI-38, read-out: IC50 (µM) WI-38
Description: The MTT assay was performed to evaluate the in vitro antitumor activity of the synthesized 4-anilinoquinazolines according to a previously reported method [59, 60, 61, 62, 63].

[5] = tested on: MCF7 (mammary gland breast cancer); experiment: MTT antiproliferative assay, MCF7; settings: Homo sapiens, MCF7, read-out: IC50 (µM) MCF7
Description: as §1

[6] = biological target: CDK8 (Homo sapiens, UniProt P49336); experiment: In vitro CDK8 enzyme inhibition assay
Description: (§2) The CDK enzyme assay was performed as previously described [63].

[7] = biological target: T1, CDK9/CycT1 (Homo sapiens, UniProt P50750); experiment: Ligand efficiency and ligand lipophilic efficiency (DataWarrior); settings: for LE: LE=−RTlnIC50/N; for LLE: LLE=pIC50−clogP
Description: Ligand efficiency is an important parameter that is widely used in the development of drug measures to quantify the molecular properties, particularly the size and lipophilicity of small molecules, required to gain binding affinity to a drug target. The LE values of the synthesized compounds were measured using DataWarrior employing the following equation [48]: LE=−RTlnIC50/N where R is the universal gas constant, T is the absolute temperature in Kelvin, and N represents the number of heavy atoms, that is, non-hydrogen atoms in the drug.
LE is widely used for the selection and optimization of fragments, hits, and leads. […] Compounds with LE values higher than 0.3 are promising lead compounds.
In drug discovery and development, it is challenging to optimize the compound activity while maintaining a constant lipophilicity. As a result, LLE is an effective approach to control molecule lipophilicity to evade any “molecular obesity” through lead optimization. These were obtained via DataWarrior, according to the following equation [50]: LLE=pIC50−clogP
An acceptable lead compound should have an LLE value ≥5. As depicted in Table 6, 5j has acceptable LLE values. However, other compounds have values below the recommended limit.

[8] = biological target: CDK7/CycT1 (Homo sapiens, UniProt P50613); experiment: In vitro CDK7 enzyme inhibition assay
Description: as §2

[9] = biological target: T1, CDK9/CycT1; experiment: In vitro CDK9/cyclin T1 enzyme inhibition assay
Description: as §2

[10] = pIC 50, from the CDK9 IC50 of Table 6
[11] = IC50 (µM) CDK9/CycT1, dose-response curves, repeated in Table 6

Chain of CDK8 (P49336 whole entry): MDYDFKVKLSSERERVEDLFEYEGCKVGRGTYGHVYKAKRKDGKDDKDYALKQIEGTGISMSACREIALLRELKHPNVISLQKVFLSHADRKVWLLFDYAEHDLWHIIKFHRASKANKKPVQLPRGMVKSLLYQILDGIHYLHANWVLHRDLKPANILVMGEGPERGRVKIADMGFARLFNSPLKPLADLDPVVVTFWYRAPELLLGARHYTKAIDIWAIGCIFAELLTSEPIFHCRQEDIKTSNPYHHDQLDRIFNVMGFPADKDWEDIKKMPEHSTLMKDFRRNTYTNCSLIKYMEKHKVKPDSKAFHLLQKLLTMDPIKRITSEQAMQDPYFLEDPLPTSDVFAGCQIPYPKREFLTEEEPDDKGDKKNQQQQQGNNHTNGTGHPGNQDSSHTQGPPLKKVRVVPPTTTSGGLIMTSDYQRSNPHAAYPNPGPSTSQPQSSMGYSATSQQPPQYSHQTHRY
Chain of CDK8 (P24863 whole entry partner): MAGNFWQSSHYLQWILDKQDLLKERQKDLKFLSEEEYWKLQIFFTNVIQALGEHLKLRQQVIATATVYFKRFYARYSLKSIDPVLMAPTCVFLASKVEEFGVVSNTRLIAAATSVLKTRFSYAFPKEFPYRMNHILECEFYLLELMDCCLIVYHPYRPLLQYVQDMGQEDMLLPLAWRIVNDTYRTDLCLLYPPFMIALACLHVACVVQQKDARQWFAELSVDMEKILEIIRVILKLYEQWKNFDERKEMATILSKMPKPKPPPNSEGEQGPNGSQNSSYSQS
T1 sequence (P50750 whole entry): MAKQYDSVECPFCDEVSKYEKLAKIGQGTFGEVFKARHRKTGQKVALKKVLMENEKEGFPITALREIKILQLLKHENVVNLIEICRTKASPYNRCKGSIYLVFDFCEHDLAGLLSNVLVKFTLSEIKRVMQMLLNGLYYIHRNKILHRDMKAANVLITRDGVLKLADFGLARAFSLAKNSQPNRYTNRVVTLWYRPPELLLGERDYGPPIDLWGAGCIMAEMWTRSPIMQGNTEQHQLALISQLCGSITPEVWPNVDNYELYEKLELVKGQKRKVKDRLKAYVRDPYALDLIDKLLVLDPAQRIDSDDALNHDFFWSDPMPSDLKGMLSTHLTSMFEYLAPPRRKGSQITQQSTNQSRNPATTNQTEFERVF
T1 sequence (O60563 whole entry partner): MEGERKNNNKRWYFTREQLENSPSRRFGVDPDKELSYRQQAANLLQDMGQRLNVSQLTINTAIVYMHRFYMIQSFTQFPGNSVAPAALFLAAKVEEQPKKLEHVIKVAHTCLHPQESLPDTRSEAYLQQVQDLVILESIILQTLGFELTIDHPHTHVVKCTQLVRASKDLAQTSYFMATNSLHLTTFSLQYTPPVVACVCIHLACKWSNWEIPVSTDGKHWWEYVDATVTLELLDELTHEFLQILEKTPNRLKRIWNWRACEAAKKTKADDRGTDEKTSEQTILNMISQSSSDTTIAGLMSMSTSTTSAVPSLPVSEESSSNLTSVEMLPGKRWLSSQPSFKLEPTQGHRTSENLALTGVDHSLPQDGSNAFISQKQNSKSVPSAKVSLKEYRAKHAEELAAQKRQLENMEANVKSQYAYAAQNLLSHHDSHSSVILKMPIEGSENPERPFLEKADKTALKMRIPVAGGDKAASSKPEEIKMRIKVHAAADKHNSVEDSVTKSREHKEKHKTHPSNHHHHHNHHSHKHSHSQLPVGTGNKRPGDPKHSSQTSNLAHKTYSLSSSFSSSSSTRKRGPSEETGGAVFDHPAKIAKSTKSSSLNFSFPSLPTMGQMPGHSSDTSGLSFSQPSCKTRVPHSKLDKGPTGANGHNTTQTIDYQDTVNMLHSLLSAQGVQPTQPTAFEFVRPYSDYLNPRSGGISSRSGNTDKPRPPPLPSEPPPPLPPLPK
Chain of CDK7/CycT1 (P50613 whole entry): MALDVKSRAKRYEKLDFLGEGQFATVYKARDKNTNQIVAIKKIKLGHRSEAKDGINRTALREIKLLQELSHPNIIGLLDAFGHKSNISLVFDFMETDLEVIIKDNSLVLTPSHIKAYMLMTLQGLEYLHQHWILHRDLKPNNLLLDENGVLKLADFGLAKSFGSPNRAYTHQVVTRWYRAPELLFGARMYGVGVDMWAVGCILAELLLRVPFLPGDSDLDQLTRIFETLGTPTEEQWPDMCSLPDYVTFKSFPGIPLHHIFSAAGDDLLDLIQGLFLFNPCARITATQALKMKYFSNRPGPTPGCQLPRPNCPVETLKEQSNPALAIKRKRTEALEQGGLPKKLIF
Chain of CDK7/CycT1 (P51946 whole entry partner): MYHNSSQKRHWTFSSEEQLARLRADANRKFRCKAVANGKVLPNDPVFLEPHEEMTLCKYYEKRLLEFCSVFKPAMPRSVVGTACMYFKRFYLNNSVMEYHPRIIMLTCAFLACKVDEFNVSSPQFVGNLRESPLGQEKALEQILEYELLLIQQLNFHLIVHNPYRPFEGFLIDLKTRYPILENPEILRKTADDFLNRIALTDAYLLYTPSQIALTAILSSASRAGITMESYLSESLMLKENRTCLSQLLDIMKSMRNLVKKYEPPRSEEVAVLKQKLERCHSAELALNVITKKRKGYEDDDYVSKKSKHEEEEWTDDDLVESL

SMILES	IC50 [1] [µM]	IC50 [2] [µM]	IC50 [3] [µM]	IC50 [4] [µM]	IC50 [5] [µM]	melting point [°C]	IC50 [6] [µM]	LE [7]	LLE [7]	IC50 [8] [µM]	IC50 [9, 10] [µM]	IC50 [9, 11] [µM]
Nc1nccc(-c2ccc(Cl)cc2)n1 [Compound 3b, 4-(4-chlorophenyl)pyrimidin-2-amine]	18.9 ± 1.3	15.2 ± 1.2	29.1 ± 2	93.9 ± 5.1	10.2 ± 0.9	–	–	–	–	–	–	–
COc1ccc(-c2ccnc(N)n2)cc1 [Compound 3c, 4-(4-methoxyphenyl)pyrimidin-2-amine]	74.4 ± 3.7	86.2 ± 4.3	> 100	58.1 ± 3.6	62.1 ± 3.6	–	–	–	–	–	–	–
Nc1nccc(-c2ccc(C(F)(F)F)cc2)n1 [Compound 3d, 4-(4-(trifluoromethyl)phenyl)pyrimidin-2-amine]	91.7 ± 4.9	> 100	> 100	> 100	87.1 ± 4.6	–	–	–	–	–	–	–
Nc1nccc(-c2ccc(OC(F)(F)F)cc2)n1 [Compound 3e, 4-(4-(trifluoromethoxy)phenyl)pyrimidin-2-amine]	39.1 ± 2.3	47 ± 2.6	61.3 ± 3.5	74.6 ± 4.2	26.3 ± 1.8	–	–	–	–	–	–	–
N#Cc1cnc(N)nc1-c1ccccc1 [Compound 3f, 2-amino-4-phenylpyrimidine-5-carbonitrile]	8.18 ± 0.8	18.2 ± 1.4	30.5 ± 2.1	55.2 ± 3.2	6.08 ± 0.4	–	–	–	–	–	–	–
N#Cc1cnc(N)nc1-c1ccc(Cl)cc1 [Compound 3g, 2-amino-4-(4-chlorophenyl)pyrimidine-5-carbonitrile]	44.2 ± 2.5	34.7 ± 2.1	45 ± 2.6	82.7 ± 4.8	52.9 ± 2.9	–	–	–	–	–	–	–
N#Cc1cnc(N)nc1-c1ccc(F)cc1 [Compound 3h, 2-amino-4-(4-fluorophenyl)pyrimidine-5-carbonitrile]	67 ± 3.5	82.5 ± 4.1	94.2 ± 5.3	> 100	59 ± 3.4	214 to 216	–	–	–	–	–	–
NS(=O)(=O)c1cccc(Nc2nccc(-c3ccc(Cl)cc3)n2)c1 [Compound 5b, 3-((4-(4-Chlorophenyl)pyrimidin-2-yl)amino)benzenesulfonamide]	40.9 ± 2.4	36.3 ± 2.3	53.8 ± 2.9	78.5 ± 4.4	43.7 ± 2.5	–	3.81	0.3683	3.3262	3.01	0.0589	–
COc1ccc(-c2ccnc(Nc3cccc(S(N)(=O)=O)c3)n2)cc1 [Compound 5c, 3-((4-(4-Methoxyphenyl)pyrimidin-2-yl)amino)benzenesulfonamide]	24.4 ± 1.8	29.8 ± 2.1	38.1 ± 2.4	56.3 ± 3.4	16.1 ± 1.3	–	6.3	0.3538	4.0076	0.966	0.246	–
NS(=O)(=O)c1cccc(Nc2nccc(-c3ccc(OC(F)(F)F)cc3)n2)c1 [Compound 5e, 3-((4-(4-(Trifluoromethoxy)phenyl)pyrimidin-2-yl)amino)benzenesulfonamide]	81.3 ± 4.1	38.8 ± 2.5	56.6 ± 3.1	64.3 ± 3.9	74 ± 4.2	252 to 254	1.89	0.3129	2.7773	1.1	0.149	–
NS(=O)(=O)c1cccc(Nc2nccc(-c3ccc(F)cc3)n2)c1 [Compound 5f, 3-((4-(4-Fluorophenyl)pyrimidin-2-yl)amino)benzenesulfonamide]	46.8 ± 2.6	51.4 ± 2.8	65.9 ± 3.7	26.9 ± 2	57.2 ± 3.2	–	1.53	0.3694	3.8517	0.479	0.2	–
NS(=O)(=O)c1cccc(Nc2nccc(-c3ccc([N+](=O)[O-])cc3)n2)c1 [Compound 5g, 3-((4-(4-Nitrophenyl)pyrimidin-2-yl)amino)benzenesulfonamide]	84.6 ± 4.3	42.6 ± 2.4	57.5 ± 3.4	31.1 ± 2.3	68.2 ± 3.9	265 to 267	4.19	0.3393	4.8413	1.34	–	1.74
NS(=O)(=O)c1cccc(Nc2nccc(-c3ccccn3)n2)c1 [Compound 5h, 3-((4-(Pyridin-2-yl)pyrimidin-2-yl)amino)benzenesulfonamide]	28 ± 2.1	25.4 ± 1.9	35.1 ± 2.3	> 100	14.3 ± 1.2	–	6.56	0.3868	4.8844	3.18	0.191	–
NS(=O)(=O)c1cccc(Nc2nccc(-c3ccncc3)n2)c1 [Compound 5i, 3-((4-(Pyridin-4-yl)pyrimidin-2-yl)amino)benzenesulfonamide]	52.6 ± 2.9	63.7 ± 3.2	72.2 ± 4	19.7 ± 1.3	32.2 ± 2.1	–	4.37	0.3868	4.9754	4.33	1.67	1.67
N#Cc1cnc(Nc2cccc(S(N)(=O)=O)c2)nc1-c1ccc(Cl)cc1 [Compound 5k, 3-((4-(4-Chlorophenyl)-5-cyanopyrimidin-2-yl)amino)benzenesulfonamide]	48.6 ± 2.7	66.2 ± 3.4	75.3 ± 4.3	27.1 ± 2.2	39.5 ± 2.3	–	3.66	0.3384	3.4615	1.73	–	0.613
N#Cc1cnc(Nc2cccc(S(N)(=O)=O)c2)nc1-c1ccc(F)cc1 [Compound 5l, 3-((5-Cyano-4-(4-fluorophenyl)pyrimidin-2-yl)amino)benzenesulfonamide]	56.2 ± 3.2	74.9 ± 3.7	83.7 ± 4.6	39.3 ± 2.7	46 ± 2.6	–	1.65	0.3394	3.9856	1.92	–	0.967
N#Cc1cnc(Nc2ccccc2)nc1-c1ccccc1 [Compound 5m, 4-Phenyl-2-(phenylamino)pyrimidine-5-carbonitrile]	88.4 ± 4.6	9.83 ± 0.7	23.6 ± 1.5	73.3 ± 4.1	76.3 ± 4.3	–	1.43	0.4289	2.9828	0.703	–	1.96
COc1cccc2c1C(=O)c1c(O)c3c(c(O)c1C2=O)C[C@@](O)(C(=O)CO)C[C@@H]3O[C@H]1C[C@H](N)[C@H](O)[C@H](C)O1 [DOX, Doxorubicin, reference compound]	4.5 ± 0.2	–	–	–	–	–	–	–	–	–	–	–
